Test system: platelet function
Test: Platelet Reactivity Test (PRT) on fingerprick whole blood of volunteers before and after taking aspirin
Assay type: in vivo
Settings: human volunteers after taking aspirin, single-passageway cartridge with spring, most volunteers
Procedure: The PRT test is used to activate platelet gel formations using a small (20 microliter) whole blood sample to help identify proper platelet function in the absence of platelet drug therapy and to identify inhibited platelet function in the presence of platelet drug therapy. The test is performed by running a small quantity of blood through a channel restriction that will induce the formation of platelet gels and trap them in a focused area similar to the way platelets are activated and focused in the body.
In use, the cartridge is secured in instrument 400 and preheated for three to five minutes at 33C. The cartridge is then removed from the instrument 400 and 40 μl of blood previously taken from a subject by a pinprick is placed in capillary tube 370, which is already bonded to the capillary tube port 200. The cartridge 150 is then placed back in the instrument 400. The instrument 400 is maintained at 33C. In a preferred embodiment, the cartridge 150 has a bar code that is read by the instrument 400. The instrument 400 will reject the cartridge 150 if the cartridge has been out of the instrument for more than two minutes after the preheating step.
[…] A gel forms and the pumps 350, 351 operate until an end point is reached. […]

CC(=O)Oc1ccccc1C(=O)O [aspirin]
PRT (platelet reactivity time): greater than 150 seconds

Source: patent US20060269978A1, “Method and device for monitoring platelet function” (priority 2005, published 2006)
